In publication PMC8838847, “Design, Synthesis and Cytotoxicity of Thiazole-Based Stilbene Analogs as Novel DNA Topoisomerase IB Inhibitors” (Molecules, 2022):

Experiments:
calf thymus Top1 = target: T1, calf thymus Top1 (Bos taurus, UniProt F1MN93); test: Top1-mediated DNA relaxation assay; assay type: biochemical; conditions: for supercoiled DNA remaining: compound at 125 μM; for Relaxation Assay (Top1 inhibitory activity): compounds at 50 µM, semi-quantitative, relative to CPT at 50 µM
T1 construct: 1 unit of calf thymus Top1; from tissue; host or cells: calf thymus
T1 sequence (F1MN93 1-767): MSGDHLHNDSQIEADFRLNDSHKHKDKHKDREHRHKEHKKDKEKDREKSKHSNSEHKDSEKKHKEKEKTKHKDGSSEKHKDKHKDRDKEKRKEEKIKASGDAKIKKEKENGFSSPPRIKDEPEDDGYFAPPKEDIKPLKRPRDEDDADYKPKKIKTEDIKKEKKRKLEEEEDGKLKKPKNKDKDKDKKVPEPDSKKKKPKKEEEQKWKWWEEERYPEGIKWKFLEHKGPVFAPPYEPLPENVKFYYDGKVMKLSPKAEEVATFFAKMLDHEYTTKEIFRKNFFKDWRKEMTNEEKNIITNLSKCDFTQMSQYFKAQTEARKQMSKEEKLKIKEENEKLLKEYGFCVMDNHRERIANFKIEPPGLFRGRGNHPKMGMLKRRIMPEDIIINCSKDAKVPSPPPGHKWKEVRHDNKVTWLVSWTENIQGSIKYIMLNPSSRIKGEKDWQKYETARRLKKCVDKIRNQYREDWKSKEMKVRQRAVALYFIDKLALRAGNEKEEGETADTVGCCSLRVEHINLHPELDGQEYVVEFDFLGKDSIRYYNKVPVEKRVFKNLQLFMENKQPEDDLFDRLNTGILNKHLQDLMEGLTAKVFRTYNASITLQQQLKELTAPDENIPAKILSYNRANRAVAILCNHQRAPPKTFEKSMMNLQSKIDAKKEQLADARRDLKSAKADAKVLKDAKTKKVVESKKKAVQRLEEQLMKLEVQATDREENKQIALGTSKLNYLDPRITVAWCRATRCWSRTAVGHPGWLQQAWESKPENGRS
Method: The synthesized compounds 6–37 were evaluated for Top1 inhibitory activity by measurement of the Top1-mediated DNA relaxation assay. The compounds were tested at 50 µΜ using CPT as positive control, and the results were semi-quantitatively expressed relative to CPT at 50 µΜ as follows: ++++, more than 80% activity; +++, between 40% and 79% activity; ++, between 10% and 39% activity; +, less than 10% activity. […] In phenyl A, the 4-position halogen (X) remarkably affected the inhibition against Top1. […] In phenyl B, the introduction of substituents at the 3-position was beneficial for the Top1 inhibition, and the derivatives presented good tolerance of the 3-substituents, since compounds 8 (++++) and 13 (+++) with electron-donating -Me or -OMe and also compound 19 (+++) with electron-withdrawing -Br had good inhibition against Top1. For substituents at the 4-position, the strong electron-withdrawing -CF3 (10, +++) and -F (15, +++) increased the Top1 inhibitory activity compared to compound 6 (R = H), while the weak electron-withdrawing -Cl (17, +) and the electron-donating -Me (9, +) and -OMe (14, +) decreased the activity, with the exception of tert-Bu (11, +++).
As previously mentioned, compound 8 had the best inhibition activity against Top1, and therefore was selected for further investigation. A semi-quantitative Top1-mediated relaxation assay of compound 8 was performed at concentrations of 0.2, 1, 5, 25 and 125 μM.
The compounds were tested for their Top1 inhibitory activity using a Top1-mediated relaxation assay. Briefly, the reaction mixture (20 μL) with 0.5 μg of supercoiled pBR322 DNA in relaxation buffer (10 mM Tris-HCl, pH 7.5, 50 mM KCl, 5 mM MgCl2, 15 μg/mL BSA, 40 μg/mL DTT) was incubated with 1 unit of calf thymus Top1 in the absence or in the presence of the compound for 30 min at 37 °C. Then, the reaction solution was added with 6 × loading buffer (4 μL) and was analyzed using a 0.8% agarose gel in TBE buffer at 4.6 V/cm for 1.5 h. Gel was stained with 1 × GelRed for 30 min and subsequently visualized with a UV transilluminator.

[1] = tested on: human breast cancer (MCF-7) cells; test: MTT cytotoxicity assay, MCF-7; assay type: cell-based; conditions: five doses 0.01-100 µM
Method: (§1) The cytotoxicity of the desired compounds was assessed through MTT assay against two human cancer cell lines, human breast cancer (MCF-7) and colon cancer (HCT116), and one normal cell line, human embryonic kidney 293T (HEK293T). CPT and etoposide (VP-16) were used as positive controls. The compounds were incubated with cells for 72 h in a five-dose assay ranging from 0.01 to 100 µΜ. After the drug treatments, MTT solution was added to test the percentage growth of tumor cells.
(§2) The cells were cultured on RPMI 1640 Medium at 37 °C in a humidified atmosphere with 5% CO2. The cytotoxicities of the target compounds were evaluated through MTT assay against two human cancer cell lines (human breast cancer MCF-7 and human colon cancer HCT116). For the compound treatment experiments, the cancer cells were treated with the compounds (pre-dissolved in DMSO) via a five-dose assay ranging from 10^−8 to 10^−4 M. After incubation for 72 h at 37 °C, MTT solution (20 μL, 2.5 mg/mL) in PBS (PBS without MTT as the blank) was added to each well of the culture plate. After incubation for 4 h, the formazan crystal formed in the well was dissolved in 100 μL of DMSO for an optical density of 570 nm. The IC50 value was calculated using nonlinear regression analysis (GraphPad Prism). Every experiment was conducted three times, independently.

[2] = tested on: human colon cancer (HCT116) cells; test: MTT cytotoxicity assay, HCT116; assay type: cell-based; conditions: five doses 0.01-100 µM
Method: as §1, §2

[3] = MTT cytotoxicity assay, HEK293T normal cells; assay type: cell-based, human; conditions: human, HEK293T cells (normal cell line)
Method: as §1, §2

[4] = tested on: human embryonic kidney 293T (HEK293T) cells; test: MTT cytotoxicity assay, HEK293T normal cells; assay type: cell-based; conditions: 72 h, normal cell line
Method: as §1, §2

[5] = semi-quantitative relaxation assay (Figure 3)

Compound | supercoiled DNA remaining (calf thymus Top1; [5]) | IC50 ([1]; Homo sapiens, MCF7, 72 h) | IC50 ([2]; Homo sapiens, HCT-116, 72 h) | IC50 at 72 h [3] | Top1 inhibition compared with CPT (calf thymus Top1; compound at 25 μM, semi-quantitative relaxation assay (Figure 3)) | IC50 [4] | melting point | Relaxation Assay (Top1 inhibitory activity) (calf thymus Top1) | IC50 ([1]; 72 h) | IC50 ([2]; 72 h)
CC[C@@]1(O)C(=O)OCc2c1cc1n(c2=O)Cc2cc3ccccc3nc2-1 [CPT, camptothecin, reference compound] | 58% | 0.34 ± 0.026 µM | 0.012 ± 0.001 µM | 0.1 ± 0.003 µM |  |  |  |  |  | 
Cc1cccc(/C=C/c2nc(-c3ccc(F)cc3)cs2)c1 [Compound 8, (E)-2-(3-methylstyryl)-4-(4-fluorophenyl)thiazole] | 75% |  |  | > 10 µM | equipotent Top1 inhibition with CPT | 10.2 ± 0.68 µM | 148 to 149 °C |  |  | 
Cc1ccc(/C=C/c2nc(-c3ccc(F)cc3)cs2)cc1 [Compound 9, (E)-2-(4-methylstyryl)-4-(4-fluorophenyl)thiazole] |  | 65.5 ± 3.11 µM | 21.9 ± 4.29 µM |  |  |  | 164 to 166 °C | + (less than 10% activity) |  | 
CC(C)(C)c1ccc(/C=C/c2nc(-c3ccc(F)cc3)cs2)cc1 [Compound 11, (E)-2-(4-tert-butylstyryl)-4-(4-fluorophenyl)thiazole] |  | < 10 µM |  | > 10 µM |  | 12 ± 2.45 µM | 146 to 148 °C |  | 6.31 ± 0.51 µM | 
COc1ccc(/C=C/c2nc(-c3ccc(F)cc3)cs2)cc1 [Compound 14, (E)-2-(4-methoxystyryl)-4-(4-fluorophenyl)thiazole] |  | > 100 µM | > 100 µM |  |  |  | 124 to 125 °C | + (less than 10% activity) |  | 
Fc1ccc(-c2csc(/C=C/c3ccc(Cl)cc3)n2)cc1 [Compound 17, (E)-2-(4-chlorostyryl)-4-(4-fluorophenyl)thiazole] |  | 43.3 ± 1.42 µM | 27.1 ± 0.41 µM |  |  |  | 171 to 173 °C | + (less than 10% activity) |  | 
Fc1ccc(-c2csc(/C=C/c3ccc(Cl)cc3Cl)n2)cc1 [Compound 20, (E)-2-(2,4-Dichlorostyryl)-4-(4-fluorophenyl)thiazole] |  | 72.4 ± 2.15 µM | 54.8 ± 0.73 µM |  |  |  | 131 to 133 °C | + (less than 10% activity) |  | 
Cc1ccccc1/C=C/c1nc(-c2ccc(Cl)cc2)cs1 [Compound 21, (E)-4-(4-chlorophenyl)-2-(2-methylstyryl)thiazole] |  | 39.5 ± 1.06 µM | 41.7 ± 1.92 µM |  |  |  | 83 to 84 °C | + (less than 10% activity) |  | 
Clc1ccc(-c2csc(/C=C/c3ccccc3Cl)n2)cc1 [Compound 25, (E)-4-(4-chlorophenyl)-2-(2-chlorostyryl)thiazole] |  | 48.5 ± 6.67 µM | 51 ± 3.7 µM |  |  |  | 109 to 110 °C | + (less than 10% activity) |  | 
CC(C)(C)c1ccc(/C=C/c2nc(-c3ccc(Br)cc3)cs2)cc1 [Compound 28, (E)-4-(4-bromophenyl)-2-(4-(tert-butyl)styryl)thiazole] |  |  |  |  |  |  | 89 to 90 °C | + (less than 10% activity) |  | 
COc1ccccc1/C=C/c1nc(-c2ccc(Br)cc2)cs1 [Compound 30, (E)-4-(4-bromophenyl)-2-(2-methoxystyryl)thiazole] |  | > 100 µM | > 100 µM |  |  |  | 110 to 112 °C | + (less than 10% activity) |  | 
COc1cccc(/C=C/c2nc(-c3ccc(Br)cc3)cs2)c1 [Compound 31, (E)-4-(4-bromophenyl)-2-(3-methoxystyryl)thiazole] |  | 45.8 ± 4.47 µM | 40.3 ± 7.8 µM |  |  |  | 112 to 113 °C | + (less than 10% activity) |  | 
COc1ccc(/C=C/c2nc(-c3ccc(Br)cc3)cs2)cc1 [Compound 32, (E)-4-(4-bromophenyl)-2-(4-methoxystyryl)thiazole] |  | > 100 µM | > 100 µM |  |  |  | 189 to 191 °C | + (less than 10% activity) |  | 
Oc1ccccc1/C=C/c1nc(-c2ccc(Br)cc2)cs1 [Compound 33, (E)-2-(2-(4-(4-bromophenyl)thiazol-2-yl)vinyl)phenol] |  | 39.2 ± 1.79 µM | < 5 µM |  |  |  | 226 to 228 °C | + (less than 10% activity) |  | 4.15 ± 0.76 µM
Oc1cccc(/C=C/c2nc(-c3ccc(Br)cc3)cs2)c1 [Compound 34, (E)-3-(2-(4-(4-bromophenyl)thiazol-2-yl)vinyl)phenol] |  | 22.8 ± 1.4 µM | 9.99 ± 0.19 µM |  |  |  |  | + (less than 10% activity) |  | 
Oc1ccc(/C=C/c2nc(-c3ccc(Br)cc3)cs2)cc1 [Compound 35, (E)-4-(2-(4-(4-bromophenyl)thiazol-2-yl)vinyl)phenol] |  | 38 ± 5.82 µM | < 5 µM |  |  |  | 204 to 205 °C | + (less than 10% activity) |  | 2.86 ± 0.46 µM
CC(C)=CCOc1ccc(/C=C/c2nc(-c3ccc(Br)cc3)cs2)cc1 [Compound 37, (E)-4-(4-bromophenyl)-2-(4-((3-methylbut-2-en-1-yl)oxy)styryl)thiazole] |  | > 100 µM | > 100 µM |  |  |  | 134 to 135 °C | + (less than 10% activity) |  | 
